From patent US20190287644A1, “Correlation Method To Identify Relevant Genes For Personalized Treatment Of Complex Disease” (Northeastern University, priority 2018, published 2019)

Tests used:
[1] = system: Hybrid Mouse Diversity Panel (HMDP) strains; test: ISO-induced cardiac hypertrophy (total heart weight) in the Hybrid Mouse Diversity Panel; type: in vivo; settings: across HMDP strains, three weeks after implantation of ISO pump (30 mg per kg per day, 21 days)
Experimental: 30 mg per kg body weight per day of Isoproterenol (ISO) was administered for 21 days in 8-10 week old female mice using ALZET osmotic mini-pumps, which were surgically implanted intraperitoneally. All animal experiments were conducted following guidelines established and approved by the University of California, Los Angeles Institutional Animal Care and Use Committee (IACUC) and housed in an IACUC-approved vivarium with daily monitoring by vivarium personnel.
As each mouse in a strain is genetically identical, several mice from the same strain were used for measuring the cardiac hypertrophic response to ISO treatment. […] Cardiac hypertrophy for a given strain was calculated as the increase in average total heart weight after ISO treatment compared to control mice.
One can also perform an entirely novel type of differential gene expression analysis owing to the fact that, in addition to control and treated subjects belonging to the same strain having the same genetic background, the change of heart mass in response to ISO, i.e., the ratio m′i/mi of total heart mass before (mi) and after ISO treatment (m′i) for strain i, can be measured for all strains (i=1, 2, . . . , N) to assess the degree of hypertrophy among different strains. […]

[2] = system: neonatal rat ventricular myocytes (NRVMs); test: Cardiomyocyte cell cross-sectional area; type: cell-based; settings: cells transfected with control siRNA, following ISO/PE treatment
Text: (§1) Right ventricular myocytes were isolated and cultured, as reported using 2-4 day old rats. Myocytes and fibroblasts were separated with Percoll density gradient. For knockdown experiments cells were transfected with Hes1 siRNA using lipofectamine RNAimax (life technologies).
Quantification of cardiomyocyte cell cross-sectional area was done following transfection with either control or Hes1 siRNA and a 48-hour treatment with control or isoproterenol or phenylepherine containing media. Images were taken on a Nikon Eclipse TE2000-U microscope. Images were analyzed using the Nikon Imagine System (NIS). 150 cells were used to compute the SEM.

Nppa and Nppb = test: Expression of hypertrophic markers Nppa and Nppb in neonatal rat ventricular myocytes (qPCR); type: cell-based; settings: NRVMs transfected with control siRNA
Experimental: as §1
RNA isolation from cells was performed using Qiazol lysis reagent. cDNA synthesis was performed using the High Capacity Reverse Transcription cDNA Kit (Life Technologies). qPCR was performed using the LightCycler 480 (Roche).

Row | SMILES | increase of heart mass [1] [%] | cellular cross-sectional area [2] | increase of Nppa expression (Nppa and Nppb) [fold] | increase of Nppb expression (Nppa and Nppb) [fold]
1 | CC(C)NCC(O)c1ccc(O)c(O)c1 (stereo not shown) [ISO, isoproterenol] | ≤ 80 | doubled | 3.5 | 7.9
2 | CNC[C@H](O)c1cccc(O)c1 [PE, phenylephrine] | – | doubled | 11 | 13
